Measurements: patent US9695154B2, “Heteroaryl inhibitors of sumo activating enzyme” (MILLENNIUM PHARMACEUTICALS, INC., priority 2013, dated 2017)
pIC50: −log10 of the molar value.

Target: T1, recombinant human SAE enzyme (Homo sapiens, UniProt Q9UBT2)
T1 sequence (Q9UBT2 1-640): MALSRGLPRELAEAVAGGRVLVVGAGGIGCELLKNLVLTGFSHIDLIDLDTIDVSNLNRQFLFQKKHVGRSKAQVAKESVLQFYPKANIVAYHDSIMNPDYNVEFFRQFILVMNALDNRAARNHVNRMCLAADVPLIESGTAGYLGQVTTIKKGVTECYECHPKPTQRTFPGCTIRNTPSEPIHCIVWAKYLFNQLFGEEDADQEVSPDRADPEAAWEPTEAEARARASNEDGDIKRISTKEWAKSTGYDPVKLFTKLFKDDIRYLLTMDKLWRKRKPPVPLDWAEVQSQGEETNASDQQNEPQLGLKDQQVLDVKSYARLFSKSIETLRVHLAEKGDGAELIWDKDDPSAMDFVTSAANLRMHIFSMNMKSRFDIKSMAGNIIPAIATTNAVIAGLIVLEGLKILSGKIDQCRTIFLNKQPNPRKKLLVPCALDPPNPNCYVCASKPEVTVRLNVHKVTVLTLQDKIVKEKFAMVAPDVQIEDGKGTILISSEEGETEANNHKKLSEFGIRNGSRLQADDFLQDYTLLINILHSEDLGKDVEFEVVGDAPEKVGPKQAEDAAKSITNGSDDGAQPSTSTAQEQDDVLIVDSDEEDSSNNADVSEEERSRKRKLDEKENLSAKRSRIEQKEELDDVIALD
T1 sequence (Q9UBE0 1-346 partner): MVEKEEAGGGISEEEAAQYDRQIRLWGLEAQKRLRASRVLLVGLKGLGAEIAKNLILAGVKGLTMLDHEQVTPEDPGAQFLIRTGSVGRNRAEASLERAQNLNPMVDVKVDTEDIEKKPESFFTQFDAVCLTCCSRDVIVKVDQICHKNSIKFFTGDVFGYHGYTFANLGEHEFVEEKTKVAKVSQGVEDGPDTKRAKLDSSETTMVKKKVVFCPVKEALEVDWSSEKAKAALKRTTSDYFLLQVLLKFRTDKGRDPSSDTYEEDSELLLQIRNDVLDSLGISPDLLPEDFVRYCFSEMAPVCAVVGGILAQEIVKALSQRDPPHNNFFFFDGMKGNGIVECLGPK
Experiment: SAE HTRF Enzyme Assay
Format: biochemical
Conditions: for pIC50: class symbols A-C; for inhibition at 0.111 µM / Percent Inhibition: compound concentration 0.111 μM; for inhibition at 0.111 µM: read-out: Percent Inhibition; for Percent Inhibition: 0.111 µM
Experimental: The SAE enzymatic reaction totals 50 μl and contains 50 mM HEPES Hemisodium (pH 7.5), 0.05% BSA, 5 mM MgCl2, 0.5 μM ATP, 250 μM GSH, 0.01 μM Ubc9-GST, 0.125 μM Sumo-Flag and 0.11 nM recombinant human SAE enzyme. The enzymatic reaction mixture with and without inhibitor, Is incubated at 24° C. for 105 min in a 384-well plate before termination with […] of Stop/Detection buffer (0.1M HEPES Hemisodium pH 7.5, 0.05% Tween20, 20 mM EDTA, 410 mM KF, 0.53 nM Europium-Cryptate labeled monoclonal anti-Flag M2 Antibody (CisBio International) and 8.125 μg/ml PHYCOLINK goat anti-GST allophycocyanin (XL-APC) antibody (Prozyme)). After incubation for 2 hours at 24° C., quantification of FRET is performed on the Pherostar™ (BMG Labtech). Percentage inhibition values at a single concentration or enzyme inhibition (IC50) values are determined from those curves. One skilled in the art will appreciate that the values generated either as percentage inhibition at a single concentration or IC50 values are subject to experimental variation.

SMILES	pIC50	inhibition at 0.111 µM [%]	Percent Inhibition [%]
C=C[S+]([O-])c1cccc(Cn2ccc(C(=O)c3cncnc3N[C@@H]3C[C@H](COS(N)(=O)=O)[C@@H](O)[C@H]3O)n2)c1 (mixture of isomers) [Compound I-74, [(1R,2R,3S,4R)-2,3-dihydroxy-4-{[5-({1-[3-((R)-vinylsulfinyl)benzyl]-1H-pyrazol-3-yl}carbonyl)pyrimidin-4-yl]amino}cyclopentyl]methyl sulfamate and [(1R,2R,3S,4R)-2,3-dihydroxy-4-{[5-({1-[3-((S)-vinylsulfinyl)benzyl]-1H-pyrazol-3-yl}carbonyl)pyrimidin-4-yl]amino}cyclopentyl]methyl sulfamate]	> 8.00	92	
CC1(C)CCC(Cn2ccc(C(=O)c3cncnc3N[C@@H]3C[C@H](COS(N)(=O)=O)[C@@H](O)C3)n2)O1 (mixture of isomers) [Compound I-77, [(1R,2S,4R)-4-({5-[(1-{[(2R)-5,5-dimethyltetrahydrofuran-2-yl]methyl}-1H-pyrazol-3-yl)carbonyl]pyrimidin-4-yl}amino)-2-hydroxycyclopentyl]methyl sulfamate and [(1R,2S,4R)-4-({5-[(1-{[(2S)-5,5-dimethyltetrahydrofuran-2-yl]methyl}-1H-pyrazol-3-yl)carbonyl]pyrimidin-4-yl}amino)-2-hydroxycyclopentyl]methyl sulfamate]	6.00 to 7.00	51	
CC1(C)CCC(Cn2ccc(C(=O)c3cncnc3N[C@@H]3C[C@H](COS(N)(=O)=O)[C@@H](O)[C@@H]3F)c2)O1 (mixture of isomers) [Compound I-250, [(1R,2R,3R,4R)-4-({5-[(1-{[(2R)-5,5-dimethyltetrahydrofuran-2-yl]methyl}-1H-pyrrol-3-yl)carbonyl]pyrimidin-4-yl}amino)-3-fluoro-2-hydroxycyclopentyl]methyl sulfamate and [(1R,2R,3R,4R)-4-({5-[(1-{[(2S)-5,5-dimethyltetrahydrofuran-2-yl]methyl}-1H-pyrrol-3-yl)carbonyl]pyrimidin-4-yl}amino)-3-fluoro-2-hydroxycyclopentyl]methyl sulfamate]	7.00 to 8.00	86	
NS(=O)(=O)OC[C@H]1C[C@@H](Nc2ncncc2C(=O)c2ccn(CC3CCCO3)n2)C[C@@H]1O (mixture of isomers) [Compound I-293, [(1R,2S,4R)-2-hydroxy-4-{[5-({1-[(2R)-tetrahydrofuran-2-ylmethyl]-1H-pyrazol-3-yl}carbonyl)pyrimidin-4-yl]amino}cyclopentyl]methyl sulfamate and [(1R,2S,4R)-2-hydroxy-4-{[5-({1-[(2S)-tetrahydrofuran-2-ylmethyl]-1H-pyrazol-3-yl}carbonyl)pyrimidin-4-yl]amino}cyclopentyl]methyl sulfamate]	6.00 to 7.00	38	
NS(=O)(=O)OC[C@H]1C[C@@H](Nc2ncncc2C(=O)c2ccn(C3C=CCCC3)n2)C[C@@H]1O (mixture of isomers) [Compound I-302, [(1R,2S,4R)-4-{[5-({1-[(1R)-cyclohex-2-en-1-yl]-1H-pyrazol-3-yl}carbonyl)pyrimidin-4-yl]amino}-2-hydroxycyclopentyl]methyl sulfamate and [(1R,2S,4R)-4-{[5-({1-[(1S)-cyclohex-2-en-1-yl]-1H-pyrazol-3-yl}carbonyl)pyrimidin-4-yl]amino}-2-hydroxycyclopentyl]methyl sulfamate]	6.00 to 7.00	34	
NS(=O)(=O)OC[C@H]1C[C@@H](Nc2ncncc2C(=O)c2ccn(CC3CCOC3)n2)C[C@@H]1O (mixture of isomers) [Compound I-332, [(1R,2S,4R)-2-hydroxy-4-{[5-({1-[(3R)-tetrahydrofuran-3-ylmethyl]-1H-pyrazol-3-yl}carbonyl)pyrimidin-4-yl]amino}cyclopentyl]methyl sulfamate and [(1R,2S,4R)-2-hydroxy-4-{[5-({1-[(3S)-tetrahydrofuran-3-ylmethyl]-1H-pyrazol-3-yl}carbonyl)pyrimidin-4-yl]amino}cyclopentyl]methyl sulfamate]	6.00 to 7.00	16	
NS(=O)(=O)OC[C@H]1C[C@@H](Nc2ncncc2C(=O)c2ccn(CC3CC3c3ccccc3)c2)C[C@@H]1O (mixture of isomers) [Compound I-339, [(1R,2S,4R)-2-hydroxy-4-{[5-({1-[(1S,2S)-(2-phenylcyclopropyl)methyl]-1H-pyrrol-3-yl}carbonyl)pyrimidin-4-yl]amino}cyclopentyl]methyl sulfamate and [(1R,2S,4R)-2-hydroxy-4-{[5-({1-[(1R,2R)-(2-phenylcyclopropyl)methyl]-1H-pyrrol-3-yl}carbonyl)pyrimidin-4-yl]amino}cyclopentyl]methyl sulfamate]	> 8.00	93	
COC(C)c1cc(C(=O)c2cncnc2N[C@@H]2C[C@H](COS(N)(=O)=O)[C@@H](O)C2)nn1Cc1cccc(Br)c1 (mixture of isomers) [Compound I-369, [(1R,2S,4R)-4-{[5-({1-(3-bromobenzyl)-5-[(1S)-1-methoxyethyl]-1H-pyrazol-3-yl}carbonyl)pyrimidin 4-yl]amino)-2-hydroxycyclopentyl]methyl sulfamate and [(1R,2S,4R)-4-{[5-({1-(3-bromobenzyl)-5-[(1R)-1-methoxyethyl]-1H-pyrazol-3-yl}carbonyl)pyrimidin-4-yl]amino}-2-hydroxycyclopentyl]methyl sulfamate]	> 8.00	98	
NS(=O)(=O)OC[C@H]1C[C@@H](Nc2ncncc2C(=O)c2ccn(CC3CC3c3ccccc3)c2)[C@@H](F)[C@@H]1O (single isomer, unassigned) [Compound I-9, [(1R,2R,3R,4R)-3-fluoro-2-hydroxy-4-{[5-({1-[(1R,2R)-(2-phenylcyclopropyl)methyl]-1H-pyrrol-3-yl}carbonyl)pyrimidin-4-yl]amino}cyclopentyl]methyl sulfamate or [(1R,2R,3R,4R)-3-fluoro-2-hydroxy-4-{[5-({1-[(1S,2S)-(2-phenylcyclopropyl)methyl]-1H-pyrrol-3-yl}carbonyl)pyrimidin-4-yl]amino}cyclopentyl]methyl sulfamate]	7.00 to 8.00		91
C#Cc1cccc([C@@H](C)n2ccc(C(=O)c3cncnc3N[C@@H]3C[C@H](COS(N)(=O)=O)[C@@H](O)C3)n2)c1 (single isomer, unassigned) [Compound I-10]	7.00 to 8.00	61	
CC(c1cccc(Br)n1)n1ccc(C(=O)c2cncnc2N[C@@H]2C[C@H](COS(N)(=O)=O)[C@@H](O)C2)n1 (single isomer, unassigned) [Compound I-65, [(1R,2S,4R)-4-{[5-({1-[(1S)-1-(6-bromopyridin-2-yl)ethyl]-1H-pyrazol-3-yl}carbonyl)pyrimidin-4-yl]amino}-2-hydroxycyclopentyl]methyl sulfamate or [(1R,2S,4R)-4-{[5-({1-[(1R)-1-(6-bromopyridin-2-yl)ethyl]-1H-pyrazol-3-yl}carbonyl)pyrimidin-4-yl]amino}-2-hydroxycyclopentyl]methyl sulfamate]	> 8.00		99
CC(c1ccc(Cl)o1)n1ccc(C(=O)c2cncnc2N[C@@H]2C[C@H](COS(N)(=O)=O)[C@@H](O)C2)n1 (single isomer, unassigned) [Compound I-79, [(1R,2S,4R)-4-{[5-({1-[(1S)-1-(5-chloro-2-furyl)ethyl]-1H-pyrazol-3-yl}carbonyl)pyrimidin-4-yl]amino}-2-hydroxycyclopentyl]methyl sulfamate or [(1R,2S,4R)-4-{[5-({1-[(1R)-1-(5-chloro-2-furyl)ethyl]-1H-pyrazol-3-yl}carbonyl)pyrimidin-4-yl]amino}-2-hydroxycyclopentyl]methyl sulfamate]	> 8.00		98
